Where two headings read alike, the source gives them in different places.
System: B-Raf mediated phosphorylation of MEK1
Experiment: Cellular assay of B-Raf mediated phosphorylation of MEK1 in co-transfected 3T3 cells
Assay type: cell-based
Conditions: Mus musculus, NIH3T3, 2 h, two hours exposure, anti-phospho-MEK1/2 immunoassay
Experimental: B-Raf mediated phosphorylation of MEK1 was measured in a cellular assay. Expression constructs for B-Raf and FLAG-tagged MEK1 (a B-raf substrate) were co-transfected in 3T3 cells and gene expression was induced using the GeneSwitch™ system for inducible mammalian expression (Invitrogen). Four hours following the induction of expression of B-Raf and MEK1, cells were exposed to the test compounds for two hours. The cells were then lysed, and then an immunoassay was performed using anti-phospho-MEK1/2 (Cell Signaling Technlogoies) to detect the percent inhibition of MEK1 phosphorylation.

[1] = read-out: Potency (IC50, inhibition of MEK1 phosphorylation), 3T3 cells co-transfected with B-Raf and FLAG-tagged MEK1
[2] = 3T3 cells co-transfected with B-Raf and FLAG-tagged MEK1, read-out: Potency (IC50, inhibition of MEK1 phosphorylation)

Row | Structure (SMILES) | IC50 [1] [µM] | IC50 [2] [µM]
1 | CCn1cc(-c2ccnc3[nH]ccc23)c(-c2cccc(NC(=O)NCc3ccccc3)c2)n1 [Example 9, N-{3-[1-Ethyl-4-(1H-pyrrolo[2,3-b]pyridin-4-yl)-1H-pyrazol-3-yl]phenyl}-N-(phenylmethyl)urea] | < 6 | –
2 | CCn1cc(-c2ccnc3[nH]ccc23)c(-c2cccc(NC(=O)Nc3c(F)cccc3F)c2)n1 [Example 6, N-(2,6-Difluorophenyl)-N-{3-[1-ethyl-4-(1H-pyrrolo[2,3-b]pyridin-4-yl)-1H-pyrazol-3-yl]phenyl}urea] | – | < 6
3 | CCn1cc(-c2ccnc3[nH]cc(Cl)c23)c(-c2cccc(NC(=O)Nc3ccccc3)c2)n1 [Example 13, N-{3-[4-(3-Chloro-1H-pyrrolo[2,3-b]pyridin-4-yl)-1-ethyl-1H-pyrazol-3-yl]phenyl}-N-phenylurea] | – | > 6
4 | CCn1cc(-c2ccnc3[nH]ccc23)c(-c2cccc(NC(=O)NC3CCCCC3)c2)n1 [Example 8, N-Cyclohexyl-N-{3-[1-ethyl-4-(1H-pyrrolo[2,3-b]pyridin-4-yl)-1H-pyrazol-3-yl]phenyl}urea] | < 6 | –
5 | CCn1cc(-c2ccnc3[nH]cc(Br)c23)c(-c2cccc(NC(=O)Nc3ccccc3)c2)n1 [Example 14, N-{3-[4-(3-Bromo-1H-pyrrolo[2,3-b]pyridin-4-yl)-1-ethyl-1H-pyrazol-3-yl]phenyl}-N-phenylurea] | – | < 6

Reference: patent US20090018156A1, “Pyrrolo [2,3,B] Pyridine Derivatives Useful As RAF Kinase Inhibitors” (priority 2006, published 2009)
